{"source": "patent US20110263425A1", "about": "“HERBICIDAL COMPOSITION AND METHOD OF USE THEREOF” (SYNGENTA CROP PROTECTION, INC., priority 2007, published 2011)", "parameters_in_all_cases": "key to Synergy (actual significantly higher than expected): *indicates synergy", "conditions_in_all_cases": "for Weed control, Actual: tank mixture", "key": {"[1]": {"test_system": "white clover (Trifolium repens)", "test": "Glasshouse trial, control of white clover, mesotrione and atrazine applied post-emergence", "format": "in vivo", "description": "[The source words this procedure for another organism and says it was used here with some conditions changed.] (§1) A glasshouse trial was carried out. Large crabgrass seeds were sown into standard glasshouse potting mix (1:1 v/v Promix:Vero sand soil) contained in 10 cm square plastic pots. Treatments were replicated three times. Mesotrione (in the form Callisto® 480SE) was applied post-emergence to large crabgrass (Digitaria sanguinalis) at either 12 g ai/ha or 24 g ai/ha with or without atrazine (in the form […]®. When used, atrazine was applied at a rate of 140 g ai/ha or 280 g ai/ha. The adjuvant system was X-77 at 0.1% v/v in deionised water. 200 litres of herbicide/adjuvant system was used per hectare. General weed control was evaluated at 7 and 14 days after treatment (DAT). It is noted that all herbicides were applied at reduced field rates because herbicide effects are magnified in a glasshouse environment. Rates were chosen to give a 50 to 70% level of control with herbicides applied alone as this allows for detection of any synergistic effect when tank mixtures are used. The results were evaluated using the Colby formula. The expected result for (A+B) is (A+B)-(A×B/100) where A and B are the 'observed' results for A and B on their own. […] A glasshouse trial was carried out as described in Example 1, but the herbicidal composition was applied to white clover (Trifolium repens) instead of large crabgrass, and higher rates of mesotrione were used."}, "[2]": {"test_system": "large crabgrass (Digitaria sanguinalis)", "test": "Glasshouse trial, control of large crabgrass, mesotrione and atrazine applied post-emergence", "format": "in vivo", "description": "A glasshouse trial was carried out. Large crabgrass seeds were sown into standard glasshouse potting mix (1:1 v/v Promix:Vero sand soil) contained in 10 cm square plastic pots. Treatments were replicated three times. Mesotrione (in the form Callisto® 480SE) was applied post-emergence to large crabgrass (Digitaria sanguinalis) at either 12 g ai/ha or 24 g ai/ha with or without atrazine (in the form […]®. When used, atrazine was applied at a rate of 140 g ai/ha or 280 g ai/ha. The adjuvant system was X-77 at 0.1% v/v in deionised water. 200 litres of herbicide/adjuvant system was used per hectare. General weed control was evaluated at 7 and 14 days after treatment (DAT). It is noted that all herbicides were applied at reduced field rates because herbicide effects are magnified in a glasshouse environment. Rates were chosen to give a 50 to 70% level of control with herbicides applied alone as this allows for detection of any synergistic effect when tank mixtures are used. The results were evaluated using the Colby formula. The expected result for (A+B) is (A+B)-(A×B/100) where A and B are the 'observed' results for A and B on their own."}, "[3]": {"test_system": "large crabgrass", "test": "Glasshouse trial, control of large crabgrass, mesotrione and atrazine applied pre-emergence", "format": "in vivo, Digitaria sanguinalis", "description": "as §1, with “pre-emergence,” for “to white clover (Trifolium repens) instead of large crabgrass,”, “atrazine” for “mesotrione”"}, "[4]": {"conditions": "atrazine 140 g ai/ha plus mesotrione at 50 g ai/ha"}, "[5]": {"conditions": "atrazine 140 g ai/ha plus mesotrione at 100 g ai/ha"}, "[6]": {"conditions": "atrazine 280 g ai/ha plus mesotrione at 50 g ai/ha"}, "[7]": {"conditions": "atrazine 280 g ai/ha plus mesotrione at 100 g ai/ha"}, "[8]": {"conditions": "atrazine 140 g ai/ha plus mesotrione at 12 g ai/ha"}, "[9]": {"conditions": "atrazine 140 g ai/ha plus mesotrione at 24 g ai/ha"}, "[10]": {"conditions": "atrazine 280 g ai/ha plus mesotrione at 12 g ai/ha"}, "[11]": {"conditions": "atrazine 280 g ai/ha plus mesotrione at 24 g ai/ha"}, "[12]": {"conditions": "atrazine 560 g ai/ha plus mesotrione at 12 g ai/ha"}, "[13]": {"conditions": "atrazine 560 g ai/ha plus mesotrione at 24 g ai/ha"}}, "data": [{"compound": "CCNc1nc(Cl)nc(NC(C)C)n1", "note": "[Atrazine, 6-chloro-N-ethyl-N-isopropyl-1,3,5-triazine-2,4-diamine]", "values": [{"measurement": "Weed control, Expected (Colby formula)", "setting": "[1]; [4]", "value": 58, "unit": "%"}, {"measurement": "Weed control, Actual", "setting": "[1]; [4]", "value": 57, "unit": "%"}, {"measurement": "Synergy (actual significantly higher than expected)", "setting": "[1]; [5]", "value": "*"}, {"measurement": "Weed control, Expected (Colby formula)", "setting": "[1]; [5]", "value": 68, "unit": "%"}, {"measurement": "Weed control, Actual", "setting": "[1]; [5]", "value": 80, "unit": "%"}, {"measurement": "Weed control, Expected (Colby formula)", "setting": "[1]; [6]", "value": 74, "unit": "%"}, {"measurement": "Weed control, Actual", "setting": "[1]; [6]", "value": 73, "unit": "%"}, {"measurement": "Synergy (actual significantly higher than expected)", "setting": "[1]; [7]", "value": "*"}, {"measurement": "Weed control, Expected (Colby formula)", "setting": "[1]; [7]", "value": 80, "unit": "%"}, {"measurement": "Weed control, Actual", "setting": "[1]; [7]", "value": 88, "unit": "%"}, {"measurement": "Synergy (actual significantly higher than expected)", "setting": "[2]; [8]", "value": "*"}, {"measurement": "Weed control, Expected (Colby formula)", "setting": "[2]; [8]", "value": 37, "unit": "%"}, {"measurement": "Weed control, Actual", "setting": "[2]; [8]", "value": 48, "unit": "%"}, {"measurement": "Synergy (actual significantly higher than expected)", "setting": "[2]; [9]", "value": "*"}, {"measurement": "Weed control, Expected (Colby formula)", "setting": "[2]; [9]", "value": 68, "unit": "%"}, {"measurement": "Weed control, Actual", "setting": "[2]; [9]", "value": 78, "unit": "%"}, {"measurement": "Synergy (actual significantly higher than expected)", "setting": "[2]; [10]", "value": "*"}, {"measurement": "Weed control, Expected (Colby formula)", "setting": "[2]; [10]", "value": 37, "unit": "%"}, {"measurement": "Weed control, Actual", "setting": "[2]; [10]", "value": 62, "unit": "%"}, {"measurement": "Synergy (actual significantly higher than expected)", "setting": "[2]; [11]", "value": "*"}, {"measurement": "Weed control, Expected (Colby formula)", "setting": "[2]; [11]", "value": 68, "unit": "%"}, {"measurement": "Weed control, Actual", "setting": "[2]; [11]", "value": 77, "unit": "%"}, {"measurement": "Synergy (actual significantly higher than expected)", "setting": "[3]; [10]", "value": "*"}, {"measurement": "Weed control, Expected (Colby formula)", "setting": "[3]; [10]", "value": 68, "unit": "%"}, {"measurement": "Weed control, Actual", "setting": "[3]; [10]", "value": 75, "unit": "%"}, {"measurement": "Weed control, Expected (Colby formula)", "setting": "[3]; [11]", "value": 97, "unit": "%"}, {"measurement": "Weed control, Actual", "setting": "[3]; [11]", "value": 87, "unit": "%"}, {"measurement": "Synergy (actual significantly higher than expected)", "setting": "[3]; [12]", "value": "*"}, {"measurement": "Weed control, Expected (Colby formula)", "setting": "[3]; [12]", "value": 60, "unit": "%"}, {"measurement": "Weed control, Actual", "setting": "[3]; [12]", "value": 90, "unit": "%"}, {"measurement": "Weed control, Expected (Colby formula)", "setting": "[3]; [13]", "value": 96, "unit": "%"}, {"measurement": "Weed control, Actual", "setting": "[3]; [13]", "value": 98, "unit": "%"}]}]}
